According to PubChem BioAssay (NCI):
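Step 1: Grow cells in 96-well plates. Step 2: Expose to compound for 48 hours at 5 concentrations. Step 3: Interpolate endpoints linearly; if unreached, use highest concentration. At the GI50, growth is halved. TGI: concentration producing complete growth inhibition.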

What was measured:
Assay in all cases: NCI anticancer screen, dose series, 48 h
ACHN renal = test system: ACHN renal
HL-60(TB) leukemia = test system: HL-60(TB) leukemia
K-562 leukemia = test system: K-562 leukemia
NCI/ADR-RES ovarian = test system: NCI/ADR-RES ovarian
SK-OV-3 ovarian = test system: SK-OV-3 ovarian
A498 renal = test system: A498 renal
BT-549 breast = test system: BT-549 breast
CAKI-1 renal = test system: CAKI-1 renal
CCRF-CEM leukemia = test system: CCRF-CEM leukemia
DU-145 prostate = test system: DU-145 prostate
HOP-92 NSCLC = test system: HOP-92 NSCLC
KM12 colon = test system: KM12 colon
MDA-MB-231 breast = test system: MDA-MB-231 breast
MOLT-4 leukemia = test system: MOLT-4 leukemia
NCI-H460 lung = test system: NCI-H460 lung
OVCAR-3 ovarian = test system: OVCAR-3 ovarian
OVCAR-5 ovarian = test system: OVCAR-5 ovarian
OVCAR-8 ovarian = test system: OVCAR-8 ovarian
PC-3 prostate = test system: PC-3 prostate
RXF 393 renal = test system: RXF 393 renal
SF-295 CNS = test system: SF-295 CNS
SF-539 CNS = test system: SF-539 CNS
SK-MEL-5 melanoma = test system: SK-MEL-5 melanoma
SN12C renal = test system: SN12C renal
SNB-75 CNS = test system: SNB-75 CNS
SR leukemia = test system: SR leukemia
SW-620 colon = test system: SW-620 colon
TK-10 renal = test system: TK-10 renal
UACC-62 melanoma = test system: UACC-62 melanoma
UO-31 renal = test system: UO-31 renal
786-0 renal = test system: 786-0 renal
A549 NSCLC = test system: A549 NSCLC
COLO 205 colon = test system: COLO 205 colon
EKVX NSCLC = test system: EKVX NSCLC
HCC-2998 colon = test system: HCC-2998 colon
HCT-15 colon = test system: HCT-15 colon
HOP-62 NSCLC = test system: HOP-62 NSCLC
HS 578T breast = test system: HS 578T breast
HT29 colon = test system: HT29 colon
IGROV1 ovarian = test system: IGROV1 ovarian
LOX IMVI melanoma = test system: LOX IMVI melanoma
M14 melanoma = test system: M14 melanoma
MALME-3M melanoma = test system: MALME-3M melanoma
MCF7 breast = test system: MCF7 breast
MDA-MB-435 = test system: MDA-MB-435
NCI-H226 lung = test system: NCI-H226 lung
NCI-H522 lung = test system: NCI-H522 lung
OVCAR-4 ovarian = test system: OVCAR-4 ovarian
RPMI-8226 leukemia = test system: RPMI-8226 leukemia
SF-268 CNS = test system: SF-268 CNS
SK-MEL-2 melanoma = test system: SK-MEL-2 melanoma
SK-MEL-28 melanoma = test system: SK-MEL-28 melanoma
SNB-19 CNS = test system: SNB-19 CNS
T-47D breast = test system: T-47D breast
U251 CNS = test system: U251 CNS
UACC-257 melanoma = test system: UACC-257 melanoma

Molecule `NC(N)=Nc1ccc(Oc2cccc(Nc3ccc(Br)c(C(F)(F)F)c3)c2)cn1` has a GI50 (ACHN renal) of 1750 nM, a TGI (ACHN renal) of 3200 nM and a GI50 (HL-60(TB) leukemia) of 1630 nM. For the same molecule, the TGI (HL-60(TB) leukemia) was 4120 nM, the GI50 (K-562 leukemia) was 2070 nM and the TGI (K-562 leukemia) was > 100000 nM. For the same molecule, the GI50 (NCI/ADR-RES ovarian) was 3930 nM, the TGI (NCI/ADR-RES ovarian) was 29500 nM and the GI50 (SK-OV-3 ovarian) was 2040 nM. The TGI (SK-OV-3 ovarian) was 3680 nM.
`Cc1[nH]c(C(=O)Nc2ccccc2OCc2cccc(C(=O)N3CCC[C@@H](N)C3)c2)c(Cl)c1Cl` showed a GI50 (A498 renal) of 1560 nM, a TGI (A498 renal) of 3010 nM and a GI50 (ACHN renal) of 1610 nM. The TGI (ACHN renal) was 3020 nM, the GI50 (BT-549 breast) was 1780 nM and the TGI (BT-549 breast) was 3430 nM. For the same molecule, the GI50 (CAKI-1 renal) was 1630 nM, the TGI (CAKI-1 renal) was 3170 nM and the GI50 (CCRF-CEM leukemia) was 1240 nM. The TGI (CCRF-CEM leukemia) was 2990 nM, the GI50 (DU-145 prostate) was 1790 nM and the TGI (DU-145 prostate) was 3260 nM. It also gave a GI50 (HL-60(TB) leukemia) of 1120 nM, a TGI (HL-60(TB) leukemia) of 2670 nM and a GI50 (HOP-92 NSCLC) of 1060 nM. It also gave a TGI (HOP-92 NSCLC) of 2620 nM, a GI50 (K-562 leukemia) of 1130 nM and a TGI (K-562 leukemia) of 2500 nM. For the same molecule, the GI50 (KM12 colon) was 1820 nM, the TGI (KM12 colon) was 3400 nM and the GI50 (MDA-MB-231 breast) was 1770 nM. The TGI (MDA-MB-231 breast) was 3500 nM, the GI50 (MOLT-4 leukemia) was 1690 nM and the TGI (MOLT-4 leukemia) was 3430 nM. The GI50 (NCI-H460 lung) was 1930 nM, the TGI (NCI-H460 lung) was 3760 nM and the GI50 (OVCAR-3 ovarian) was 1710 nM. The TGI (OVCAR-3 ovarian) was 3150 nM, the GI50 (OVCAR-5 ovarian) was 1570 nM and the TGI (OVCAR-5 ovarian) was 2980 nM. The GI50 (OVCAR-8 ovarian) was 2060 nM, the TGI (OVCAR-8 ovarian) was 4570 nM and the GI50 (PC-3 prostate) was 1530 nM. For the same molecule, the TGI (PC-3 prostate) was 3060 nM, the GI50 (RXF 393 renal) was 1640 nM and the TGI (RXF 393 renal) was 3300 nM. For the same molecule, the GI50 (SF-295 CNS) was 1790 nM, the TGI (SF-295 CNS) was 3360 nM and the GI50 (SF-539 CNS) was 1570 nM. The TGI (SF-539 CNS) was 2960 nM, the GI50 (SK-MEL-5 melanoma) was 1720 nM and the TGI (SK-MEL-5 melanoma) was 3110 nM. For the same molecule, the GI50 (SK-OV-3 ovarian) was 1800 nM, the TGI (SK-OV-3 ovarian) was 3390 nM and the GI50 (SN12C renal) was 1770 nM. The TGI (SN12C renal) was 3410 nM, the GI50 (SNB-75 CNS) was 1330 nM and the TGI (SNB-75 CNS) was 2710 nM. It also gave a GI50 (SR leukemia) of 254 nM, a TGI (SR leukemia) of 771 nM and a GI50 (SW-620 colon) of 1630 nM. It also gave a TGI (SW-620 colon) of 3120 nM, a GI50 (TK-10 renal) of 2040 nM and a TGI (TK-10 renal) of 3700 nM. For the same molecule, the GI50 (UACC-62 melanoma) was 1600 nM, the TGI (UACC-62 melanoma) was 3090 nM and the GI50 (UO-31 renal) was 1330 nM. The TGI (UO-31 renal) was 2800 nM.
Molecule `COC1CCN(Cc2ccc3c(NNC(=O)c4cnccn4)nc4cc(F)ccc4n23)C1` (centres undefined) has a GI50 (786-0 renal) of 1930 nM, a TGI (786-0 renal) of 20300 nM and a GI50 (A498 renal) of 89200 nM. For the same molecule, the TGI (A498 renal) was > 100000 nM, the GI50 (A549 NSCLC) was 1240 nM and the TGI (A549 NSCLC) was 16000 nM. The GI50 (ACHN renal) was 647 nM, the TGI (ACHN renal) was 31800 nM and the GI50 (BT-549 breast) was 2320 nM. The TGI (BT-549 breast) was > 100000 nM, the GI50 (CAKI-1 renal) was 933 nM and the TGI (CAKI-1 renal) was 19700 nM. The GI50 (CCRF-CEM leukemia) was 468 nM, the TGI (CCRF-CEM leukemia) was > 100000 nM and the GI50 (COLO 205 colon) was 949 nM. For the same molecule, the TGI (COLO 205 colon) was 13900 nM, the GI50 (DU-145 prostate) was 2680 nM and the TGI (DU-145 prostate) was > 100000 nM. The GI50 (EKVX NSCLC) was 1080 nM, the TGI (EKVX NSCLC) was 23000 nM and the GI50 (HCC-2998 colon) was 3630 nM. It also gave a TGI (HCC-2998 colon) of 26800 nM, a GI50 (HCT-15 colon) of 355 nM and a TGI (HCT-15 colon) of 16300 nM. The GI50 (HL-60(TB) leukemia) was 1030 nM, the GI50 (HOP-62 NSCLC) was 747 nM and the TGI (HOP-62 NSCLC) was 14400 nM. For the same molecule, the GI50 (HOP-92 NSCLC) was 1770 nM, the TGI (HOP-92 NSCLC) was 30000 nM and the GI50 (HS 578T breast) was 3440 nM. For the same molecule, the TGI (HS 578T breast) was > 100000 nM, the GI50 (HT29 colon) was 552 nM and the TGI (HT29 colon) was 14800 nM. The GI50 (IGROV1 ovarian) was 1130 nM, the TGI (IGROV1 ovarian) was 39100 nM and the GI50 (K-562 leukemia) was 530 nM. For the same molecule, the TGI (K-562 leukemia) was > 100000 nM, the GI50 (KM12 colon) was 2140 nM and the TGI (KM12 colon) was > 100000 nM. It also gave a GI50 (LOX IMVI melanoma) of 1130 nM, a TGI (LOX IMVI melanoma) of 2870 nM and a GI50 (M14 melanoma) of 1370 nM. It also gave a TGI (M14 melanoma) of 13100 nM, a GI50 (MALME-3M melanoma) of 3380 nM and a TGI (MALME-3M melanoma) of 18900 nM. For the same molecule, the GI50 (MCF7 breast) was 531 nM, the TGI (MCF7 breast) was 12300 nM and the GI50 (MDA-MB-231 breast) was 1800 nM. The TGI (MDA-MB-231 breast) was 17300 nM, the GI50 (MDA-MB-435) was 2090 nM and the TGI (MDA-MB-435) was 18700 nM. The GI50 (MOLT-4 leukemia) was 699 nM, the TGI (MOLT-4 leukemia) was 41500 nM and the GI50 (NCI-H226 lung) was 1700 nM. It also gave a TGI (NCI-H226 lung) of 18200 nM, a GI50 (NCI-H460 lung) of 453 nM and a TGI (NCI-H460 lung) of 13600 nM. The GI50 (NCI-H522 lung) was 1640 nM, the TGI (NCI-H522 lung) was 5850 nM and the GI50 (NCI/ADR-RES ovarian) was 505 nM. For the same molecule, the TGI (NCI/ADR-RES ovarian) was 16600 nM, the GI50 (OVCAR-3 ovarian) was 2020 nM and the TGI (OVCAR-3 ovarian) was 49800 nM. The GI50 (OVCAR-4 ovarian) was 667 nM, the TGI (OVCAR-4 ovarian) was 19100 nM and the GI50 (OVCAR-5 ovarian) was 2710 nM. The TGI (OVCAR-5 ovarian) was 97700 nM, the GI50 (OVCAR-8 ovarian) was 846 nM and the TGI (OVCAR-8 ovarian) was 15100 nM. For the same molecule, the GI50 (PC-3 prostate) was 1450 nM, the TGI (PC-3 prostate) was 30200 nM and the GI50 (RPMI-8226 leukemia) was 1760 nM. It also gave a TGI (RPMI-8226 leukemia) of 15600 nM, a GI50 (RXF 393 renal) of 1650 nM and a TGI (RXF 393 renal) of 5190 nM. For the same molecule, the GI50 (SF-268 CNS) was 1990 nM, the TGI (SF-268 CNS) was > 100000 nM and the GI50 (SF-295 CNS) was 744 nM. The TGI (SF-295 CNS) was 14600 nM, the GI50 (SF-539 CNS) was 1320 nM and the TGI (SF-539 CNS) was 12100 nM. For the same molecule, the GI50 (SK-MEL-2 melanoma) was 3830 nM, the TGI (SK-MEL-2 melanoma) was 59400 nM and the GI50 (SK-MEL-28 melanoma) was 3370 nM. The TGI (SK-MEL-28 melanoma) was > 100000 nM, the GI50 (SK-MEL-5 melanoma) was 2760 nM and the TGI (SK-MEL-5 melanoma) was 23600 nM. It also gave a GI50 (SK-OV-3 ovarian) of 2350 nM, a TGI (SK-OV-3 ovarian) of 56000 nM and a GI50 (SN12C renal) of 1820 nM. For the same molecule, the TGI (SN12C renal) was 37000 nM, the GI50 (SNB-19 CNS) was 2050 nM and the TGI (SNB-19 CNS) was 28400 nM. The GI50 (SNB-75 CNS) was 538 nM, the TGI (SNB-75 CNS) was 13000 nM and the GI50 (SR leukemia) was 722 nM. For the same molecule, the TGI (SR leukemia) was 20500 nM, the GI50 (SW-620 colon) was 821 nM and the TGI (SW-620 colon) was 20300 nM. The GI50 (T-47D breast) was 1060 nM, the TGI (T-47D breast) was 64500 nM and the GI50 (TK-10 renal) was 1480 nM. It also gave a TGI (TK-10 renal) of 58400 nM, a GI50 (U251 CNS) of 601 nM and a TGI (U251 CNS) of 10900 nM. It also gave a GI50 (UACC-257 melanoma) of 2230 nM, a TGI (UACC-257 melanoma) of 6930 nM and a GI50 (UACC-62 melanoma) of 2300 nM. For the same molecule, the TGI (UACC-62 melanoma) was 13100 nM, the GI50 (UO-31 renal) was 260 nM and the TGI (UO-31 renal) was 14600 nM.
